PMC11062899, “De novo development of small cyclic peptides that are orally bioavailable” (Nature Chemical Biology, 2023)
Where “and” joins values, the source holds several entries; their conditions need not be identical. Equal values may be shown once.

Legend:
[1] = target: T1, activated protein C (APC) (Homo sapiens, UniProt P04070); experiment: Target specificity profiling: activated protein C; format: biochemical; conditions: replicates R1-R3
T1 construct: purchased Molecular Innovations
Description: (§1) The protease specificity was assessed by testing the inhibition of a series of trypsin-like serine proteases using fluorogenic or chromogenic substrates. Peptide dilutions ranging from 40 μM to 40 nM were prepared for all proteases except thrombin (1 μM to 1 nM). […]. The following fluorogenic substrates were used at a final concentration of 50 μM: Z-Gly-Gly-Arg-AMC (Bachem) for thrombin and trypsin; Z-Phe-Arg-AMC (Bachem) for plasma kallikrein; Boc-Phe-Ser-Arg-AMC (Bachem) for factor XIa; and Boc-Gln-Gly-Arg-AMC (Bachem) for factor XIIa. […]. Reactions were performed in a volume of 150 μl in 96-well plates. A volume of 50 μl of twofold dilutions of macrocycle in assay buffer was pipetted into the wells of the plates. A volume of 50 μl of protease in assay buffer was added to each well and incubated for 15 min. A volume of 50 μl of substrate in assay buffer containing 3% DMSO was added. Fluorescence intensity was measured for 30 min using an Infinite M200 Pro plate reader (Tecan; excitation at 368 nm, emission at 467 nm), with one measurement every minute. For APC protease, absorbance was measured at 405 nm using the same plate reader for a period of 30 min with one reading every minute. Reactions were performed at 25 °C. Data were analyzed by Excel (version 2016).

factor XIIa = target: T2, factor XIIa (Homo sapiens, UniProt P00748); experiment: Target specificity profiling: factor XIIa; format: biochemical; conditions: replicates R1-R3
T2 construct: 5.3 nM factor XIIa (Molecular Innovations); purchased Molecular Innovations
T2 sequence (P00748 373-615 limits assumed, other chains not shown): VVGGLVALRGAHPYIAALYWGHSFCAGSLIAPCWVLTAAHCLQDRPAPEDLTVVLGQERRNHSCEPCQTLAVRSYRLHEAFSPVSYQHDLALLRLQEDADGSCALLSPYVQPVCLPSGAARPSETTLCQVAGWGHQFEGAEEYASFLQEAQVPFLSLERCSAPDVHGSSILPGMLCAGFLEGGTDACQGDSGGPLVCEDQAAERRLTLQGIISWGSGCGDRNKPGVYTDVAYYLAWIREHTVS
Description: as §1

T1 sequence (P04070 212-461 limits assumed): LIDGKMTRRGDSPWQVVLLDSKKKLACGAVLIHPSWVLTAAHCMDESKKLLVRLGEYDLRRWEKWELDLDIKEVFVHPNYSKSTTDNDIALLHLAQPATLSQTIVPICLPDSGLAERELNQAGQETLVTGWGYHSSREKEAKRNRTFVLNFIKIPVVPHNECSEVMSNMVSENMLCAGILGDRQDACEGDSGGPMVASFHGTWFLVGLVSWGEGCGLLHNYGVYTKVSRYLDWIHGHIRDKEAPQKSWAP
T1 sequence (P04070 43-197 partner limits assumed): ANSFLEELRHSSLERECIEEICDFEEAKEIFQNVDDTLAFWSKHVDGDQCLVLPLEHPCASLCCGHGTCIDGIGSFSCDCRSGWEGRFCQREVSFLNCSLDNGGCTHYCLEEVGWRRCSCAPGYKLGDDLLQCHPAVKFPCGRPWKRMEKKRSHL

Residual protease activity, APC ([1]; inhibitor 1.00E+04 nM): 101.7 and 94.1 and 93.6
Residual protease activity, APC ([1]; inhibitor 1.25E+03 nM): 93.2 and 97.3 and 95.1
Residual protease activity, APC ([1]; inhibitor 1.56E+02 nM): 95.1 and 104.3 and 101.7
Residual protease activity, APC ([1]; inhibitor 2.00E+04 nM): 94.9 and 98.4 and 96.8
Residual protease activity, APC ([1]; inhibitor 2.50E+03 nM): 94.9 and 96.5 and 96.6
Residual protease activity, APC ([1]; inhibitor 3.12E+02 nM): 95.1 and 90.6 and 94.4
Residual protease activity, APC ([1]; inhibitor 3.91E+01 nM): 96.3 and 96.7 and 99.0
Residual protease activity, APC ([1]; inhibitor 4.00E+04 nM): 95.7 and 97.0 and 95.5
Residual protease activity, APC ([1]; inhibitor 5.00E+03 nM): 98.3 and 99.0 and 99.1
Residual protease activity, APC ([1]; inhibitor 6.25E+02 nM): 100.4 and 91.2 and 89.1
Residual protease activity, APC ([1]; inhibitor 7.81E+01 nM): 108.2 and 108.3 and 107.3
Residual protease activity, Factor XIIa (factor XIIa; inhibitor 1.00E+04 nM): 96.5 and 104.4 and 105.7
Residual protease activity, Factor XIIa (factor XIIa; inhibitor 1.25E+03 nM): 99.3 and 104.0 and 102.2
Residual protease activity, Factor XIIa (factor XIIa; inhibitor 1.56E+02 nM): 96.6 and 95.7 and 104.9
Residual protease activity, Factor XIIa (factor XIIa; inhibitor 2.00E+04 nM): 93.0 and 104.6 and 101.1
Residual protease activity, Factor XIIa (factor XIIa; inhibitor 2.50E+03 nM): 101.4 and 100.3 and 106.4
Residual protease activity, Factor XIIa (factor XIIa; inhibitor 3.12E+02 nM): 98.7 and 101.4 and 105.7
Residual protease activity, Factor XIIa (factor XIIa; inhibitor 3.91E+01 nM): 100.9 and 93.5 and 95.2
Residual protease activity, Factor XIIa (factor XIIa; inhibitor 4.00E+04 nM): 94.7 and 100.5 and 101.1
Residual protease activity, Factor XIIa (factor XIIa; inhibitor 5.00E+03 nM): 96.4 and 102.9 and 108.8
Residual protease activity, Factor XIIa (factor XIIa; inhibitor 6.25E+02 nM): 97.3 and 115.8 and 103.1
Residual protease activity, Factor XIIa (factor XIIa; inhibitor 7.81E+01 nM): 96.1 and 102.4 and 80.0
Compound: O=C1C[C@H]2CCCN2C(=O)[C@H](Cc2ccccc2)NC(=O)[C@@H](NC(=O)c2ccc(Cl)cc2)CCC=CCCCCN1 (mixture of isomers) [peptide 46]
